Experimental data published in PMC7815808, “Enzyme and lateral flow monoclonal antibody-based immunoassays to simultaneously determine spirotetramat and spirotetramat-enol in foodstuffs” (Scientific Reports, 2021).
Several values for one entry are separate records, joined by “and”; a condition that tells them apart may be missing. Equal entries are not always repeated.

What was measured:
mAbs to SP and SP-enol = experiment: Direct cELISA, binding of analytes and other pesticides by the generated mAbs; parameters: species or system mouse; conditions: for binding by the antibodies: other pesticides, insecticides and fungicides
Excerpt: Six mouse mAbs were obtained; three were from immunogen BSA‒SPm—named SPm#23, SPm#25, and SPm#216—and three from conjugate BSA‒SPo—named SPo#227, SPo#237, and SPo#243. These antibodies contained κ light chains and were of the IgG1 isotype, except mAb SPm#25 which was IgG2a. The affinity to SP and SP-enol was studied by checkerboard cELISA in the capture antibody-coated direct format, using homologous and heterologous enzyme tracers (with the same or different hapten, respectively, than the immunizing conjugate). SP and SP-enol standards were prepared in PBS (10 mM phosphate buffer, pH 7.4, with 140 mM NaCl) and tracer solutions for the competitive step were prepared in PBS-T (PBS containing 0.05% (v/v) Tween-20). […] Tracers with linker site heterologies were not bound by the antibodies. The only exception was mAb SPm#23 which did recognize the heterologous HRP‒SPh conjugate. For this antibody, the spacer arm of hapten SPh was located at a more proximal site than that of hapten […]. The lowest IC50 value with the homologous tracer was around 3 nM for SP-enol whereas binding to SP was moderate (IC50 values were higher than 30 nM).
(§1) Concerning specificity, the two assayed immunogens (BSA‒SPm and BSA‒SPo) afforded equivalent results. […] Cross-reactivity with the main SP metabolites was studied with antibody SPm#23.
(§2) Microplates were precoated with GAM in order to immobilise the mAb. The competitive step was carried out by mixing the analyte solution or diluted sample with the enzyme tracer solution. Standard curves were built in borosilicate glass tubes from 0.03 to 30 nM by a threefold serial dilution of the most concentrated standard solution, and a blank (no analyte) was also run. Concentrated stock solutions of the analytes in anhydrous DMF were used to prepare the most concentrated standard solution—the DMF concentration was always lower than 0.1% (v/v). The complete immunoassay procedure can be found in the Supplementary Information file.
(§3) Table S1. Specificity of the
(§4) 7. Direct competitive ELISA procedure
(§5) The same protocol previously described for this format was applied.7 Briefly, plates were coated with 100 µL per well of 1 µg/mL GAM solution in carbonate‒bicarbonate buffer, pH 9.6, by overnight incubation at 4 °C. Wells were washed four times with washing solution (150 mM NaCl with 0.05% (v/v) Tween-20) after each incubation step. Then, 100 µL per well of specific mAb solution in PBS-T was added and plates were incubated at room temperature during 1 h. The competitive reaction was carried out by adding 50 µL per well of analyte solution or diluted sample and 50 µL per well of tracer […]
(§6) enzyme substrate solution (2 mg/mL o-phenylendiamine and 0.012% (v/v) H2O2 in 25 mM sodium citrate and 62 mM sodium phosphate buffer, pH 5.4). Ten minutes later, the enzyme reaction was stopped by adding 100 µL per well of 1 M H2SO4.
8. Influence of pH and ionic strength […]
(§7) 7 E. Ceballos-Alcantarilla, D. López-Puertollano, C. Agulló, A. Abad-Fuentes, A. Abad-Somovilla, J. V. Mercader.
Combined heterologies for monoclonal antibody-based immunoanalysis of fluxapyroxad. Analyst 143, 5718‒

mAb SPm#23 [1] = experiment: Antibody specificity (cross-reactivity) of the selected mAb; format: binding, mouse; conditions: for CR (%): cross-reactivity of the selected mAb, SP-enol = 100, n=3
Procedure: as §1, §2, §3, §4, §5, §6
8. Influence of pH and ionic strength
Figure S5. Influence of pH and ionic strength over the Amax and IC50 values of the spirotetramat-enol standard curve of the studied direct cELISA.
as §7
Combined heterologies for monoclonal antibody-based immunoanalysis of fluxapyroxad. Analyst 143, 5718‒ […]

[2] = Spirotetramat hydrolysis study by HPLC‒MS/MS; format: physicochemical; parameters: content found by HPLC–MS/MS, sample treatment A / content found by HPLC–MS/MS, sample treatment B / content found by HPLC–MS/MS, sample treatment C / content found by HPLC–MS/MS, sample treatment D: unit not given beside the values; conditions: for content found by HPLC–MS/MS, sample treatment A: SP hydrolysed (40 mM NaOH, 10 min, room temperature); for content found by HPLC–MS/MS, sample treatment B: SP without hydrolysis; for content found by HPLC–MS/MS, sample treatment C: SP-enol hydrolysed (40 mM NaOH, 10 min, room temperature)
Procedure: (§8) In order to simultaneously quantify SP and SP-enol contents in a sample, an in situ procedure for treating the sample with alkaline solution in order to hydrolyse SP into SP-enol was assessed. SP and SP-enol standard solutions were prepared in MilliQ water and diluted fivefold with 40 mM NaOH. The mixtures were incubated 10 min at room temperature and diluted twofold with dilution buffer (200 mM Tris·HCl buffer, pH 8.0, containing 280 mM NaCl). For the competitive step, enzyme tracer solutions were prepared in TBS-T (100 mM Tris·HCl buffer, pH 8.0, containing 140 mM NaCl and 0.05% (v/v) Tween-20). As shown in the inset of Table 2, the obtained standard curves of SP-enol and hydrolysed SP were almost identical. This hydrolysis procedure was validated by HPLC‒MS/MS. SP and SP-enol aqueous solutions (50 µg/mL) were treated with NaOH and, 10 min later, the pH was lowered as previously described. Then, 10 µL of hydrolysed and diluted sample was transferred into 990 µL of acetonitrile and dried with anhydrous MgSO4. Controls without the hydrolysis step were also evaluated. Finally, the contents of SP, SP-enol, SP-keto, and SP-mono in the organic extracts were quantified (Table 2). […] Those samples were also analysed with the studied direct cELISA by running SP-enol standard solutions that had been incubated in NaOH and diluted with dilution buffer like the samples. […] Consequently, the developed hydrolysis procedure seemed to perform adequately for SP and SP-enol residue quantification as SP-enol equivalents.
SP, SP-enol, SP-keto, and SP-mono standard solutions were prepared by serial dilution in acetonitrile from 1 to 2500 μg/L in amber glass vials and kept at − 20 °C. The injection volume was 5 µL and the column temperature was 45 °C. The analysis was carried out using a C18 reverse phase column with a gradient of 0.2% (v/v) formic acid in water (A) and acetonitrile (B) as mobile phase at a flow rate of 0.3 mL/min. The elution profile was 0‒3 min, from 5% B to 95% B, 3.0‒3.5 min, 95% B, 3.5‒3.6 min, from 95% B to 5% B, and 3.6‒8 min, 5% B. Spectra were acquired in positive ionization multiple reaction monitoring mode with interchannel delay of 0.02 s.

[3] = Spirotetramat hydrolysis study by direct cELISA; format: physicochemical
Procedure: as §8

mAb SPm#23 [4] = experiment: Optimized direct cELISA (mAb SPm#23 with tracer HRP–SPh), SP-enol standard curve; format: binding, mouse
Procedure: as §8
The sigmoidal inhibition curve obtained for SP-enol and the final assay conditions of the developed direct cELISA are provided in Table 3. […] The Amax value of the standard curve was near 1.0, the slope was − 1.4, and the background signal was negligible.
as §2
The absorbance of each microplate well was immediately read at 492 nm using a reference wavelength at 650 nm, and values were processed with KCJunior software from BioTek Instruments. The SigmaPlot Version 14.0 was used to fit the experimental values to a standard four-parameter logistic curve. Immunoassay sensitivity was estimated as the concentration of analyte affording a 50% decrease (IC50) of the maximum absorbance (Amax) obtained in the absence of analyte. The LOD of the assay was defined as the IC10 of the sigmoidal inhibition curve. The LOQ was experimentally determined as the lowest analyte concentration that provided accurate and precise results using fortified food samples. […]
as §4
The same protocol previously described for this format was applied.7 Briefly, plates were coated with 100 µL per well of 1 µg/mL GAM solution in carbonate‒bicarbonate buffer, pH 9.6, by overnight incubation at 4 °C. Wells were washed four times with washing solution (150 mM NaCl with 0.05% (v/v) Tween-20) after each incubation step. […]

[5] = SPm#23 100 μg/L, HRP–SPh 30 μg/L, Tris·HCl pH 8.0, after 40 mM NaOH step, n = 5

Oc1ccccc1-c1ccccc1 [o-phenylphenol]
binding by the antibodies (mAbs to SP and SP-enol): did not bind

Cc1cc(C)nc(Nc2ccccc2)n1 [pyrimethanil]
binding by the antibodies (mAbs to SP and SP-enol): did not bind

O=C(Nc1ccccc1-c1ccc(Cl)cc1)c1cccnc1Cl [boscalid]
binding by the antibodies (mAbs to SP and SP-enol): did not bind

CO/C=C(/C(=O)OC)c1ccccc1Oc1cc(Oc2ccccc2C#N)ncn1 [azoxystrobin]
binding by the antibodies (mAbs to SP and SP-enol): did not bind

C#CCOc1ccc(CCNC(=O)C(OCC#C)c2ccc(Cl)cc2)cc1OC (centres unmarked) [mandipropamid]
binding by the antibodies (mAbs to SP and SP-enol): did not bind

c1ccc2[nH]c(-c3cscn3)nc2c1 [thiabendazole]
binding by the antibodies (mAbs to SP and SP-enol): did not bind

O=[N+]([O-])NC1=NCCN1Cc1ccc(Cl)nc1 [imidacloprid]
binding by the antibodies (mAbs to SP and SP-enol): did not bind

Cc1cc(C2CC2)nc(Nc2ccccc2)n1 [cyprodinil]
binding by the antibodies (mAbs to SP and SP-enol): did not bind

COC(=O)N(OC)c1ccccc1COc1ccn(-c2ccc(Cl)cc2)n1 [pyraclostrobin]
binding by the antibodies (mAbs to SP and SP-enol): did not bind

Cc1cc(C)c(C2=C(OC(=O)CC(C)(C)C)C3(CCCC3)OC2=O)c(C)c1 [spiromesifen]
binding by the antibodies (mAbs to SP and SP-enol): did not bind

COC1CCC2(CC1)NC(=O)C(c1cc(C)ccc1C)=C2O[C@@H]1O[C@H](CO)[C@@H](O)[C@H](O)[C@H]1O (some centres unmarked) [SP-glu, spirotetramat-enol-glucoside]
CR (%) (mAb SPm#23 [1]): 5.11% | affinity to SP-enol, times higher than to the analyte (mAb SPm#23 [1]; mAb SPm#23): ≥ 20 times

N#Cc1c[nH]cc1-c1cccc2c1OC(F)(F)O2 [fludioxonil]
binding by the antibodies (mAbs to SP and SP-enol): did not bind

CC12CC1(C)C(=O)N(c1cc(Cl)cc(Cl)c1)C2=O (centres unmarked) [procymidone]
binding by the antibodies (mAbs to SP and SP-enol): did not bind

CNC(=O)/C(=N/OC)c1ccccc1COc1cc(C)ccc1C [dimoxystrobin]
binding by the antibodies (mAbs to SP and SP-enol): did not bind

CCC(C)(C)C(=O)OC1=C(c2ccc(Cl)cc2Cl)C(=O)OC12CCCCC2 [spirodiclofen]
binding by the antibodies (mAbs to SP and SP-enol): did not bind

CO[C@H]1CC[C@]2(CC1)NC(=O)C(c1cc(C)ccc1C)=C2O [SP-enol, spirotetramat-enol]
fate on incubation in basic solution ([2]; 40 mM NaOH, 10 min, room temperature, HPLC‒MS/MS): remained unmodified | content found by HPLC–MS/MS, sample treatment A [2]: 116.7 | content found by HPLC–MS/MS, sample treatment B [2]: 1.44 | content found by HPLC–MS/MS, sample treatment C ([2]; C): 149.1 | Recovery (%), sample treatment C ([2]; C, SP-enol hydrolysed, HPLC–MS/MS): 119.6% | content found by HPLC–MS/MS, sample treatment D ([2]; D, SP-enol without hydrolysis): 142.8 | Recovery (%), sample treatment D ([2]; D, SP-enol without hydrolysis, HPLC–MS/MS): 114.6% | recovery measured as SP-enol by direct cELISA ([3]; incubated in NaOH solution (samples A and C)): 117.6% | recovery measured as SP-enol by direct cELISA ([3]; non-hydrolysed control solution (samples B and D)): 118.0% | IC50 (mAbs to SP and SP-enol; homologous tracer, read-out: lowest IC50 value with the homologous tracer): ~3 nM | CR (%) (mAb SPm#23 [1]): 100% | LOD (μg/L) (IC10) (mAb SPm#23 [4]; IC10 of the SP-enol inhibition curve, n = 5): 0.02 µg/L and 0.022 ± 0.004 µg/L | IC50 (mAb SPm#23 [4]; [5]): 0.34 nM and 0.344 nM | IC50 SP-enol (mAb SPm#23 [4]; [5]): 0.1 ng/mL and 0.104 ± 0.007 ng/mL | IC50 value for the sum of spirotetramat and spirotetramat-enol (mAb SPm#23 [4]; direct cELISA, heterologous bioconjugate): 0.1 ng/mL

CC1(C(=O)Nc2ccc(O)c(Cl)c2Cl)CCCCC1 [fenhexamid]
binding by the antibodies (mAbs to SP and SP-enol): did not bind

CC1(C)[C@H](C(=O)O[C@H](C#N)c2cccc(Oc3ccccc3)c2)[C@@H]1C=C(Br)Br [deltamethrin]
binding by the antibodies (mAbs to SP and SP-enol): did not bind

CCCN(CC)CC1COC2(CCC(C(C)(C)C)CC2)O1 (centres unmarked) [spiroxamine]
binding by the antibodies (mAbs to SP and SP-enol): did not bind

CCCOC(=O)NCCCN(C)C [propamocarb]
binding by the antibodies (mAbs to SP and SP-enol): did not bind

COC1CCC2(CC1)NC(=O)C(O)(c1cc(C)ccc1C)C2=O (centres unmarked) [SP-keto, spirotetramat-ketohydroxy]
content found by HPLC–MS/MS, sample treatment A [2]: 0.09 | content found by HPLC–MS/MS, sample treatment B [2]: 0.08 | content found by HPLC–MS/MS, sample treatment C ([2]; C): 0.39 | content found by HPLC–MS/MS, sample treatment D ([2]; D, SP-enol without hydrolysis): 0.43 | CR (%) (mAb SPm#23 [1]): 0.02% | binding (mAb SPm#23 [1]; mAb SPm#23): almost negligible

CSC1=N[C@@](C)(c2ccccc2)C(=O)N1Nc1ccccc1 [fenamidone]
binding by the antibodies (mAbs to SP and SP-enol): did not bind

COC1CCC2(CC1)NC(=O)C(c1cc(C)ccc1C)C2O (centres unmarked) [SP-mono, spirotetramat-monohydroxy]
content found by HPLC–MS/MS, sample treatment A [2]: 0.01 | content found by HPLC–MS/MS, sample treatment B [2]: 0.12 | content found by HPLC–MS/MS, sample treatment C ([2]; C): 0.02 | content found by HPLC–MS/MS, sample treatment D ([2]; D, SP-enol without hydrolysis): 0.02 | CR (%) (mAb SPm#23 [1]): 0.19% | binding (mAb SPm#23 [1]; mAb SPm#23): almost negligible

N#Cc1c(Cl)c(Cl)c(Cl)c(C#N)c1Cl [chlorothalonil]
binding by the antibodies (mAbs to SP and SP-enol): did not bind

CC(Cc1ccc(C(C)(C)C)cc1)CN1C[C@@H](C)O[C@@H](C)C1 (some centres unmarked) [fenpropimorph]
binding by the antibodies (mAbs to SP and SP-enol): did not bind
